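Interpolation was linear, between the two tested concentrations surrounding the appropriate level; five concentrations were tested over 48 hours in 96-well plates. GI50 marks 50% less growth. At the TGI there is no net growth.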
These molecules were tested on SNB-19 CNS (assay: NCI tumour cell line growth inhibition, 48 h).

SMILES | GI50 [µM] | TGI [µM]
O=C1Nc2c(C(F)(F)F)cccc2[C@]1(c1ccc(O)cc1)c1ccc(OC(F)(F)F)cc1 | 14.1 | 27.2
CS(=O)(=O)c1ccc([C@H]2O[C@@H](CO)C[C@]2(O)c2ccc(S(C)(=O)=O)cc2)cc1 | > 100 | > 100
CC(=O)OC[C@]1(C)C=C2C(=O)[C@](C)(O)C3(CC3)C(C)=C2[C@H]1O | 0.193 | 1.28
Oc1ccc(NCc2nc3ccccc3[nH]2)cc1 | 33.6 | > 100
O=C1c2cc(Cl)ccc2S(=O)(=O)c2c(NCCCNCCO)nc3ccccc3c21 | 3.77 | 14.4
CC(C)(C)OC(=O)N1CCc2c(sc3ncnc(N/N=C/c4cccc5ccccc45)c23)C1 | 5.05 | > 100
CC[C@@H]1CN(C)[C@H]2Cc3c([nH]c4ccccc34)C(=O)C[C@H]1C2C(=O)OC (some centres undefined) | – | > 100
CCN(CC)c1ccc(/C=C/c2ccc3cc(C)ccc3[n+]2CC)cc1 | 0.0621 | 13.4
Cc1ccc2c(c1)[n+]([O-])c(N)n[n+]2[O-] | – | > 100
COC1/C=C\C=C(/C)C(=O)NC2=CC(=O)C(=O)C(=C2O)CC(C)CC(OC)C(O)C(C)/C=C(\C)C1OC(N)=O (centres undefined) | – | > 100
O=c1[nH]ncc(Br)c1Br | 5.32 | 18.9
COc1ccc(-c2cc(=O)c3c(OC)c(OC)c(OC)cc3o2)cc1 | – | > 100

Each molecule was assayed on SR leukemia (assay: NCI tumour cell line growth inhibition, 48 h).

SMILES | GI50 [µM] | TGI [µM]
C=CC(=O)N1CC2(CCN(c3nc(OC4CCN(CCCOC)CC4)nc4c(OCC(F)(F)F)c(-c5c(C)ccc6[nH]ncc56)c(C5CC5)cc34)CC2)C1 | 1.75 | 4.77
FC(F)(F)c1cccc(Nc2nccc(-c3cnn4nc(-c5ccccc5)ccc34)n2)c1 | 2.15 | > 25
C=C1C(=O)O[C@H]2[C@H]1CC/C(COC(=O)c1ccc3ccccc3c1)=C\CC[C@@]1(C)O[C@@H]21 | 0.336 | > 26.8
CC[CH2][Sn]([CH2]CC)([O]C(=O)c1cccnc1SC)[O][Sn]([CH2]CC)([CH2]CC)[O]C(=O)c1cccnc1SC | 0.214 | 12.1
Oc1ccc(CN2CCC(N3CCCCC3)CC2)c2cccnc12 | 16.7 | > 100
CC[C@@]1(O)C(=O)OCc2c1cc1n(c2=O)Cc2c-1nc1cc3c(cc1c2CCl)OCO3 | < 0.01 | –
CC1(C)OC2[C@@H](CNC(=O)NC(=O)NC(=O)CI)O[C@@H](n3cnc4c(NC(=O)Nc5ccccc5)ncnc43)[C@H]2O1 (some centres undefined) | 0.954 | 2.3
COc1cc(C2=C(c3ccccc3)COC2=O)cc(OC)c1OC | – | 0.295
COc1cc(C2NC(=O)c3ccccc3N2)ccc1OCCCCCOc1c(OC)cc(C2=NOC(c3cc(OC)c(OC)c(OC)c3)C2)cc1OC (centres undefined) | 0.947 | > 100
O=C1Nc2c(C(F)(F)F)cccc2[C@]1(c1ccc(O)cc1)c1ccc(OC(F)(F)F)cc1 | 6.6 | 39.8
CS(=O)(=O)c1ccc([C@H]2O[C@@H](CO)C[C@]2(O)c2ccc(S(C)(=O)=O)cc2)cc1 | > 100 | > 100
CC(=O)OC[C@]1(C)C=C2C(=O)[C@](C)(O)C3(CC3)C(C)=C2[C@H]1O | 0.0667 | > 100
Oc1ccc(NCc2nc3ccccc3[nH]2)cc1 | 53.8 | > 100
O=C1c2cc(Cl)ccc2S(=O)(=O)c2c(NCCCNCCO)nc3ccccc3c21 | 0.466 | 5.11
CC(C)(C)OC(=O)N1CCc2c(sc3ncnc(N/N=C/c4cccc5ccccc45)c23)C1 | 2.82 | 16
CC[C@@H]1CN(C)[C@H]2Cc3c([nH]c4ccccc34)C(=O)C[C@H]1C2C(=O)OC (some centres undefined) | – | > 100
CCN(CC)c1ccc(/C=C/c2ccc3cc(C)ccc3[n+]2CC)cc1 | 0.09 | 2.28
Cc1ccc2c(c1)[n+]([O-])c(N)n[n+]2[O-] | – | > 100
COC1/C=C\C=C(/C)C(=O)NC2=CC(=O)C(=O)C(=C2O)CC(C)CC(OC)C(O)C(C)/C=C(\C)C1OC(N)=O (centres undefined) | – | 25
O=c1[nH]ncc(Br)c1Br | 0.911 | 3.9
COc1ccc(-c2cc(=O)c3c(OC)c(OC)c(OC)cc3o2)cc1 | – | > 100

These molecules were tested on TK-10 renal (assay: NCI tumour cell line growth inhibition, 48 h).

SMILES | GI50 [µM] | TGI [µM]
C=CC(=O)N1CC2(CCN(c3nc(OC4CCN(CCCOC)CC4)nc4c(OCC(F)(F)F)c(-c5c(C)ccc6[nH]ncc56)c(C5CC5)cc34)CC2)C1 | 3.73 | 14.3
FC(F)(F)c1cccc(Nc2nccc(-c3cnn4nc(-c5ccccc5)ccc34)n2)c1 | 9.22 | > 19.2
C=C1C(=O)O[C@H]2[C@H]1CC/C(COC(=O)c1ccc3ccccc3c1)=C\CC[C@@]1(C)O[C@@H]21 | 1.52 | 2.85
CC[CH2][Sn]([CH2]CC)([O]C(=O)c1cccnc1SC)[O][Sn]([CH2]CC)([CH2]CC)[O]C(=O)c1cccnc1SC | 0.409 | 1.09
Oc1ccc(CN2CCC(N3CCCCC3)CC2)c2cccnc12 | 78.2 | > 100
CC[C@@]1(O)C(=O)OCc2c1cc1n(c2=O)Cc2c-1nc1cc3c(cc1c2CCl)OCO3 | 0.292 | 11.1
CC1(C)OC2[C@@H](CNC(=O)NC(=O)NC(=O)CI)O[C@@H](n3cnc4c(NC(=O)Nc5ccccc5)ncnc43)[C@H]2O1 (some centres undefined) | 8.59 | 15.5
COc1cc(C2=C(c3ccccc3)COC2=O)cc(OC)c1OC | 1.37 | > 30.6
COc1cc(C2NC(=O)c3ccccc3N2)ccc1OCCCCCOc1c(OC)cc(C2=NOC(c3cc(OC)c(OC)c(OC)c3)C2)cc1OC (centres undefined) | > 100 | > 100
O=C1Nc2c(C(F)(F)F)cccc2[C@]1(c1ccc(O)cc1)c1ccc(OC(F)(F)F)cc1 | 11.5 | 25.3
CS(=O)(=O)c1ccc([C@H]2O[C@@H](CO)C[C@]2(O)c2ccc(S(C)(=O)=O)cc2)cc1 | > 100 | > 100
CC(=O)OC[C@]1(C)C=C2C(=O)[C@](C)(O)C3(CC3)C(C)=C2[C@H]1O | 0.233 | 2.99
Oc1ccc(NCc2nc3ccccc3[nH]2)cc1 | > 100 | > 100
O=C1c2cc(Cl)ccc2S(=O)(=O)c2c(NCCCNCCO)nc3ccccc3c21 | 1.21 | 2.46
CC(C)(C)OC(=O)N1CCc2c(sc3ncnc(N/N=C/c4cccc5ccccc45)c23)C1 | 5.89 | > 100
CC[C@@H]1CN(C)[C@H]2Cc3c([nH]c4ccccc34)C(=O)C[C@H]1C2C(=O)OC (some centres undefined) | – | > 100
CCN(CC)c1ccc(/C=C/c2ccc3cc(C)ccc3[n+]2CC)cc1 | 0.146 | 11.8
Cc1ccc2c(c1)[n+]([O-])c(N)n[n+]2[O-] | – | > 100
COC1/C=C\C=C(/C)C(=O)NC2=CC(=O)C(=O)C(=C2O)CC(C)CC(OC)C(O)C(C)/C=C(\C)C1OC(N)=O (centres undefined) | – | > 57.5
O=c1[nH]ncc(Br)c1Br | 3.45 | 10.7
COc1ccc(-c2cc(=O)c3c(OC)c(OC)c(OC)cc3o2)cc1 | – | > 100
